Source: patent publication US20160081938A1, “ACAMPROSATE FORMULATIONS, METHODS OF USING THE SAME, AND COMBINATIONS COMPRISING THE SAME” (Synchroneuron Inc., priority 2013, published 2016)

What was measured:
[1] = Simulated sustained release in a dog model; format: in vivo; settings: sustained presentation over eight hours
Description: It has been discovered that the shape of the PK curve and not just the AUC can make a difference to efficacy. Specifically, having a plasma concentration above a threshold for several hours per day (e.g., 4-8 hours) may be more efficacious than maintaining a concentration just below that threshold for 24 hours a day. […] In this model, the drug conserved by avoiding a high single dose and high Cmax was distributed across several hours, giving a several hour period in which the plasma concentration of acamprosate was higher than the plasma concentration after administration of a single dose of the immediate release version.
In a dog study of simulated sustained release of acamprosate it was shown that through sustained release a higher residence time above a threshold can be attained than by giving the same dose all at once. Combining the results from the dog study with the implications of the reported human cases we contemplate that acamprosate delivered by a sustained release system can relieve symptoms of TD and other neuropsychiatric disorders given once or twice a day. […] Thus it appears that a total daily dose of less than one gram of sustained release acamprosate, given on a twice a day basis, or perhaps even on a once a day basis, could be adequate to treat TD in the case examples. […]

[2] = high solubility and low permeability; cited from earlier work

CC(=O)NCCCS(=O)(=O)O [Acamprosate, 3-(acetylamino)-1-propanesulfonic acid]
residence time above a threshold concentration vs immediate release of the same dosage [1]: significantly longer residence time
Biopharmaceuticals Classification System (BCS) class [2]: Class III
